Columns and labels:
[1] = biological target: FGFR2 (Homo sapiens (Human), UniProt P21802); experiment: Biochemical FGFR2 Caliper assay
[2] = system: SNU-16; experiment: Cell SNU-16 assay; format: cell-based
[3] = Homo sapiens, SNU-16, SNU-16 cells

Sequence of FGFR2 (P21802 22-821): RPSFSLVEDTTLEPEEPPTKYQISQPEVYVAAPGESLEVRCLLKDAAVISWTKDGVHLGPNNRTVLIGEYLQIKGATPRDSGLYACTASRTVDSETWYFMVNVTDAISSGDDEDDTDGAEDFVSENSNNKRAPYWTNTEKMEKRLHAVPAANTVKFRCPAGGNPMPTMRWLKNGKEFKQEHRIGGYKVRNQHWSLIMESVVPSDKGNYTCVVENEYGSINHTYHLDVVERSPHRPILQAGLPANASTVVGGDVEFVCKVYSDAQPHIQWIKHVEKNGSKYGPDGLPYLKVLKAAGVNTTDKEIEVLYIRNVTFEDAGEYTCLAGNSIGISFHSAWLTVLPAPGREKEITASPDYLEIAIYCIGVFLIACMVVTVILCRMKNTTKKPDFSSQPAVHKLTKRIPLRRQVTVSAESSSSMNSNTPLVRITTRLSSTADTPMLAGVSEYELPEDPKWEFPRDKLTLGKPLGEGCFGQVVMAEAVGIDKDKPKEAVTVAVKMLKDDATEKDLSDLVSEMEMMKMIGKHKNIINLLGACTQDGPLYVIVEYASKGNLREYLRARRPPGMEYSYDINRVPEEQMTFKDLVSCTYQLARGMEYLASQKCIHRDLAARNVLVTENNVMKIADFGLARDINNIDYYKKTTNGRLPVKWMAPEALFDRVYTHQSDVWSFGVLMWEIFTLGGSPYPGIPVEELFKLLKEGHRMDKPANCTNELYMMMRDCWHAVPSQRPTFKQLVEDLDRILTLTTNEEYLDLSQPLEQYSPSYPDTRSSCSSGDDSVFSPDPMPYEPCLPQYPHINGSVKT

IC50 [1] [nM] | IC50 [2, 3] [nM] | IC50 ([2]; SNU-16 cells) [nM] | SMILES
1000 to 100000 | 1000 to 100000 |  | C=CC(=O)N1CCCc2c1nc(-c1c(-c3ccc(Oc4nccc(C)n4)cc3)c3c(N)ncnc3n1C)n2C [Example 1045]
250 to 1000 | 100 to 250 |  | C=Cc1nc2ccc(-c3c(-c4ccc(Oc5nccc(C)n5)cc4)c4c(N)ncnc4n3C)cc2[nH]1 [Example 1048]
100 to 250 | 250 to 1000 |  | C=CC(=O)Nc1ccc(-c2c(-c3ccc(Oc4cccc(C)n4)c(F)c3)c3c(N)ncnc3n2C)cc1 [Example 1053]
< 100 | ≤ 100 |  | C=CC(=O)Nc1ccc(-c2c(-c3ccc(Oc4nccc(C)n4)cc3)c3c(N)ncnc3n2C)c(Cl)c1 [Example 1054]
< 100 | ≤ 100 |  | C=C(C)C(=O)Nc1ccc(-c2c(-c3ccc(Oc4nccc(C)n4)c(F)c3)c3c(O)ncnc3n2C)cc1 [Example 1057]
1000 to 100000 | 1000 to 100000 |  | C=C(C)C(=O)Nc1ccc(-c2c(C3=CC[C@H](C(=O)N4CCC[C@@H]4C4CC4)CC3)c3c(N)ncnc3n2C)cc1 [Example 1058]
1000 to 100000 | 1000 to 100000 |  | C=C(C)C(=O)Nc1ccc(-c2c(C3=CC[C@H](C(=O)N4CCC[C@H]4C4CC4)CC3)c3c(N)ncnc3n2C)cc1 [Example 1059]
1000 to 100000 | 1000 to 100000 |  | C=C1CCN(c2ccc(-c3c(-c4ccc(Oc5nccc(C)n5)cc4)c4c(N)ncnc4n3C)cc2)C1=O [Example 1060]
< 100 |  | ≤ 100 | CC1=CCN(c2ccc(-c3c(-c4ccc(Oc5nccc(C)n5)cc4)c4c(N)ncnc4n3C)cc2)C1=O [Example 1061]
1000 to 100000 | 1000 to 100000 |  | C#Cc1ncc(-c2c(-c3ccc(Oc4nccc(C)n4)cc3)c3c(N)ncnc3n2C)c(C)n1 [Example 1062]
< 100 | ≤ 100 |  | C=C(C)C(=O)Nc1ccc(-c2c(-c3ccc(Oc4nccc(C)n4)cc3)c3c(N)ncnc3n2C)c(Cl)c1C [Example 1064]
< 100 | ≤ 100 |  | C=C(C)C(=O)Nc1ccc(-c2c(-c3ccc(Oc4nccc(C)n4)c(F)c3)c3c(C)ncnc3n2C)cc1 [Example 1068]
< 100 | ≤ 100 |  | C=C1CCN(c2ccc(-c3c(-c4ccc(Oc5nccc(C)n5)cc4)c4c(N)ncnc4n3C)cn2)C1=O [Example 1077]
< 100 | ≤ 100 |  | CC1=CCN(c2ccc(-c3c(-c4ccc(Oc5nccc(C)n5)cc4)c4c(N)ncnc4n3C)cn2)C1=O [Example 1078]
< 100 | ≤ 100 |  | C=C(C)C(=O)Nc1cccc(-c2[nH]c3ncnc(N)c3c2-c2ccc(C(=O)NCC3(F)COC3)cc2)c1 [Example 1079]
250 to 1000 | 250 to 1000 |  | C#Cc1ncc(-c2c(-c3ccc(Oc4nccc(C)n4)cc3)c3c(N)ncnc3n2C)cc1F [Example 1081]
< 100 | ≤ 100 |  | C=CC(=O)Nc1ccccc1-c1c(-c2ccc(Oc3cccc(C)n3)cc2)c2c(N)ncnc2n1C [Example 1082]

IC50 [1] [nM] | IC50 [2, 3] [nM] | IC50 ([2]; SNU-16 cells) [nM] | SMILES
1000 to 100000 | 1000 to 100000 |  | C#Cc1ccc(-c2c(-c3ccc(Oc4nccc(C)n4)cc3)c3c(N)ncnc3n2C)c(C)n1 [Example 1085]
1000 to 100000 | 250 to 1000 |  | C=C1C(=O)N(c2ccc(-c3c(-c4ccc(Oc5nccc(C)n5)cc4)c4c(N)ncnc4n3C)cc2)CC1(C)C [Example 1088]
1000 to 100000 | 1000 to 100000 |  | C=C(C)C(=O)Nc1ccc(-c2c(-c3ccc(Oc4nccc(C)n4)cc3)c3c(N)ncnc3n2C)c(Cl)c1F [Example 1089]
< 100 | ≤ 100 |  | CC1=CCCN(c2ccc(-c3c(-c4ccc(Oc5nccc(C)n5)cc4)c4c(N)ncnc4n3C)cc2)C1=O [Example 1090]
1000 to 100000 | 1000 to 100000 |  | C=C(C)C(=O)Nc1cc(C)c(-c2c(-c3ccc(Oc4cccc(C)n4)c(F)c3)c3c(N)ncnc3n2C)cn1 [Example 1091]
< 100 | ≤ 100 |  | C=CC(=O)Nc1ccc(-c2c(-c3ccc(Oc4nccc(C)n4)cc3)c3c(N)ncnc3n2C)c(C)c1 [Example 1092]
< 100 | ≤ 100 |  | C=C(C)C(=O)Nc1ccc(-c2c(-c3ccc(Oc4nccc(C)n4)c(F)c3)c3c(C)ncnc3n2C)c(Cl)c1 [Example 1093]
< 100 | ≤ 100 |  | C=CC(=O)Nc1ccc(-c2c(-c3ccc(Oc4nccc(C)n4)c(F)c3)c3c(C)ncnc3n2C)c(Cl)c1 [Example 1094]
< 100 | ≤ 100 |  | C=C1CCN(c2ccc(-c3c(-c4ccc(Oc5nccc(C)n5)cc4)c4c(N)ncnc4n3C)c(C)c2)C1=O [Example 1096]
< 100 | ≤ 100 |  | C=C(C)C(=O)Nc1cc(C)c(-c2c(-c3ccc(Oc4nccc(C)n4)cc3)c3c(N)ncnc3n2C)c(F)c1 [Example 1097]
< 100 | ≤ 100 |  | C=C(C)C(=O)Nc1ccc(-c2c(-c3ccc(Oc4cccc(C)n4)c(F)c3)c3c(N)ncnc3n2C)c(C)n1 [Example 1103]
< 100 | ≤ 100 |  | C=CC(=O)Nc1ccc(-c2c(-c3ccc(Oc4nccc(C)n4)cc3)c3c(C)ncnc3n2C)c(C)c1 [Example 1104]
< 100 | ≤ 100 |  | C=CC(=O)Nc1ccc(-c2c(-c3ccc(Oc4nccc(C)n4)c(F)c3)c3c(C)ncnc3n2C)c(C)c1 [Example 1105]
< 100 | ≤ 100 |  | C=C1CN(c2ccc(-c3c(-c4ccc(Oc5nccc(C)n5)cc4)c4c(N)ncnc4n3C)cc2)C1=O [Example 1109]
< 100 | ≤ 100 |  | C=C1CCN(c2ccc(-c3c(-c4ccc(Oc5nccc(C)n5)c(F)c4)c4c(N)ncnc4n3C)cc2)C1=O [Example 1110]
< 100 | ≤ 100 |  | C#Cc1cc(C)c(-c2c(C3=CC[C@H](C(=O)N4CCCC4)CC3)c3c(N)ncnc3n2C)cn1 [Example 1111]
< 100 | ≤ 100 |  | C=C1C[C@@H](C)N(c2ccc(-c3c(-c4ccc(Oc5nccc(C)n5)cc4)c4c(N)ncnc4n3C)cc2)C1=O [Example 1113]

The next lines start with the molecule.

SMILES | IC50 [1] [nM] | IC50 [2, 3] [nM] | IC50 ([2]; SNU-16 cells) [nM]
C=C(C)C(=O)Nc1ccc(-c2c(-c3ccc(C(=O)NCC4CCC4)c(OC)c3)c3c(N)ncnc3n2C)cc1 [Example 1046] | 1000 to 100000 | 1000 to 100000 | 
C=C(C)C(=O)Nc1ccc(-c2c(C3=CCC(S(=O)(=O)C4CCCC4)CC3)c3c(N)ncnc3n2C)cc1 (stereo not shown) [Example 1047] | 250 to 1000 | 250 to 1000 | 
C=CC(=O)Nc1ccc(-c2c(-c3ccc(Oc4cccc(C)n4)cc3)c3c(N)ncnc3n2C)cc1 [Example 1050] | 250 to 1000 | 250 to 1000 | 
C#Cc1ncc(-c2ccc(-c3c(-c4ccc(Oc5nccc(C)n5)cc4)c4c(N)ncnc4n3C)cc2)o1 [Example 1052] | 1000 to 100000 | 1000 to 100000 | 
C=C(C)C(=O)Nc1ccc(-c2c(C3=CC[C@@H](C(=O)N4CCC[C@@H]4C4CC4)CC3)c3c(N)ncnc3n2C)cc1 [Example 1055] | < 100 | ≤ 100 | 
C=C(C)C(=O)Nc1ccc(-c2c(C3=CC[C@@H](C(=O)N4CCC[C@H]4C4CC4)CC3)c3c(N)ncnc3n2C)cc1 [Example 1056] | 250 to 1000 | ≤ 100 | 
C=Cc1ncc(-c2c(-c3ccc(Oc4nccc(C)n4)cc3)c3c(N)ncnc3n2C)c(C)n1 [Example 1063] | < 100 | ≤ 100 | 
C=C(C)C(=O)Nc1cc(-c2c(-c3ccc(Oc4nccc(C)n4)cc3)c3c(N)ncnc3n2C)n(C)n1 [Example 1065] | 250 to 1000 | 250 to 1000 | 
C=C(C)C(=O)Nc1cc(C)c(-c2c(-c3ccc(Oc4nccc(C)n4)cc3)c3c(N)ncnc3n2C)cc1F [Example 1066] | < 100 | ≤ 100 | 
C#Cc1ccc(-c2c(-c3ccc(Oc4nccc(C)n4)cc3)c3c(N)ncnc3n2C)cn1 [Example 1067] | < 100 | ≤ 100 | 
C=C(C)C(=O)Nc1cc(Cl)c(-c2c(-c3ccc(Oc4nccc(C)n4)cc3)c3c(N)ncnc3n2C)cc1C [Example 1069] | 250 to 1000 | 250 to 1000 | 
CC#Cc1ncc(-c2c(-c3ccc(Oc4nccc(C)n4)cc3)c3c(N)ncnc3n2C)cn1 [Example 1070] | < 100 | ≤ 100 | 
C=C(C)C(=O)Nc1ccc(-c2c(-c3ccc(Oc4nccc(C)n4)cc3)c3c(N)ncnc3n2C)c(C)c1Cl [Example 1071] | 250 to 1000 | ≤ 100 | 
C=C(C)C(=O)Nc1cnn(C)c1-c1c(-c2ccc(Oc3nccc(C)n3)cc2)c2c(N)ncnc2n1C [Example 1072] | 250 to 1000 | 250 to 1000 | 
C#Cc1cc(C)c(-c2c(-c3ccc(Oc4nccc(C)n4)cc3)c3c(N)ncnc3n2C)cn1 [Example 1073] | 1000 to 100000 | 1000 to 100000 | 
C=CC(=O)Nc1ccc(-c2c(-c3ccc(C(=O)NC4CCC4)c(OC)c3)c3c(N)ncnc3n2C)cc1 [Example 1074] | < 100 | ≤ 100 | 
C=CC(=O)N1CC=C(c2cccc(-c3c(-c4ccc(Oc5cccc(C)n5)cc4)c4c(N)ncnc4n3C)c2)C1 [Example 1080] | 1000 to 100000 | 1000 to 100000 | 
C=CC(=O)Nc1ccc(-c2c(-c3ccc(Oc4nccc(C)n4)c(C)c3)c3c(N)ncnc3n2C)c(C)c1 [Example 1083] | 250 to 1000 | 1000 to 100000 | 
Cc1ccnc(Oc2ccc(-c3c(-c4ccc(N5C(=O)C=CC5=O)cc4)n(C)c4ncnc(N)c34)cc2)n1 [Example 1084] | < 100 | ≤ 100 | 
C=C(C)C(=O)Nc1cnc(-c2c(-c3ccc(Oc4cccc(C)n4)c(F)c3)c3c(N)ncnc3n2C)c(F)c1 [Example 1086] | < 100 | ≤ 100 | 
C=C1CCCN(c2ccc(-c3c(-c4ccc(Oc5nccc(C)n5)cc4)c4c(N)ncnc4n3C)cc2)C1=O [Example 1087] | < 100 | ≤ 100 | 
C=C(C)C(=O)Nc1cnc(-c2c(-c3ccc(Oc4cccc(C)n4)c(F)c3)c3c(N)ncnc3n2C)c(C)c1 [Example 1095] | < 100 | ≤ 100 | 
C=CC(=O)Nc1cc(-c2c(-c3ccc(Oc4cccc(C)n4)cc3)c3c(N)ncnc3n2C)n(C)n1 [Example 1098] | < 100 | ≤ 100 | 
C=CC(=O)Nc1cc(-c2c(-c3ccc(Oc4nccc(C)n4)cc3)c3c(N)ncnc3n2C)n(C)n1 [Example 1108] | < 100 | ≤ 100 | 
C=CC(=O)Nc1ccc(-c2c(-c3ccc(Oc4nccc(C)n4)c(F)c3)c3c(N)ncnc3n2C)cc1 [Example 1112] | < 100 | ≤ 100 | 

From patent publication US11780845B2 (Relay Therapeutics, Inc., priority 2019, dated 2023)
